Assay results from PMC11056980 (Journal of medicinal chemistry, 2024).
“Also recorded” adds a separate entry of the source. Residues, ends and D or L forms follow the SMILES beside them. *: point of attachment. Cbz = O=C(OCc1ccccc1)*

How the values were obtained:
[1] = biological target: M^Pro-eGFP fusion protein (Severe acute respiratory syndrome coronavirus 2, UniProt P0DTD1, Q3569G); type: cell-based, SARS-CoV-2
[2] = test system: recombinant SARS-CoV-2 Δ3678 mGFP containing an NSP5 E166A mutation; type: cell-based
[3] = test system: SARS-CoV-2 delta variant hCoV-19/USA/MD-HP05647/2021; type: cell-based
M^Pro = M^Pro (Severe acute respiratory syndrome coronavirus 2, UniProt P0DTD1); type: cell-based, SARS-CoV-2
[4] = test system: recombinant SARS-CoV-2 Δ3678 mGFP containing an NSP5 E166A mutation; details: cited from earlier work

With `C[C@@H](OC(C)(C)C)[C@H](NC(=O)OCc1ccccc1)C(=O)N[C@@H](CC1CCCCC1)C(=O)N[C@H](C=O)C[C@@H]1CCNC1=O` [MPI8, reference compound] the “Effect of pretreatment on MPD2-induced M^Pro degradation (competition)” value [1] was “completely blocked”.
With `C[C@@H](OC(C)(C)C)[C@H](NC(=O)OCc1cccc(OCCCCCCOc2cccc3c2C(=O)N(C2CCC(=O)NC2=O)C3=O)c1)C(=O)N[C@@H](CC1CCCCC1)C(=O)N[C@H](C=O)C[C@@H]1CCNC1=O` (some centres unmarked) [MPD2] the “greater potency against NSP5 E166A mutant virus compared to wild-type Δ3678 mGFP” value [2] was 5 fold, the “antiviral synergy with nirmatrelvir” value [3] was “synergistic effects” and the “M^Pro degradation during SARS-CoV-2 infection” value (M^Pro) was “most potent degrader”. The “M^Pro degradation in CRBN knockout vs wildtype CRBN cells” value [1] was “significant rescue of intracellular M^Pro” and the “M^Pro degradation, time course” value [1] was “significant degradation; also recorded: nearly maximal degradation”.
For `CC(C)(C)[C@H](NC(=O)C(F)(F)F)C(=O)N1C[C@H]2[C@@H]([C@H]1C(=O)N[C@H](C#N)C[C@@H]1CCNC1=O)C2(C)C` [nirmatrelvir], the “resistance conferred by NSP5 E166A mutation” value [4] is listed as 10 fold.
With `CC(C)C[C@@H](C=O)NC(=O)[C@H](CC(C)C)NC(=O)[C@H](CC(C)C)NC(=O)OCc1ccccc1` [MG132, reference compound] (Cbz-Leu-Leu-Leu-aldehyde) the “Effect of proteasome inhibitor pretreatment on MPD2-induced M^Pro degradation” value [1] was “effectively rescued”.
